The results in this text go back to ChEMBL document CHEMBL4177530, “Bufospirostenin A and Bufogargarizin C, Steroids with Rearranged Skeletons from the Toad Bufo bufo gargarizans” (J Nat Prod, 2017).

The species named for assay [1] is Sus scrofa. Nature of the assay: Inhibition of Na/K-ATPase in pig kidney microsomal membranes assessed as reduction in inorganic phosphate release from ATP at 25 uM incubated for 15 mins by spectrophotometry. Type of assay: cell membranes.
The species entered for assay [2] is Sus scrofa. Nature of the assay: Inhibition of Na/K-ATPase in pig kidney microsomal membranes assessed as reduction in inorganic phosphate release from ATP at 12.5 uM incubated for 15 mins by spectrophotometry. It counts as cell membranes.

Each structure is given as a SMILES string. Active and inactive are the calls of the source. The calls are words filed in the database; no cut-off is given here.

`C[C@]12CCC3=C(C=CC4=C(C3)[C@@H]3C[C@H](C4)O3)[C@H]1CC[C@@H]2c1ccc(=O)oc1`: the inhibition entry in the assay listed under Sus scrofa [1] and in the assay listed under Sus scrofa [2] was “inactive” in each case.

As for `C=C1CC[C@@]2(OC1)O[C@H]1C[C@H]3[C@@H]4CC=C5C[C@@H](O)C[C@H]5[C@](C)(O)[C@H]4CC[C@]3(C)[C@H]1[C@@H]2C`, the inhibition in the assay listed under Sus scrofa [1] was 43%; in the assay listed under Sus scrofa [2], 21%.

Consider `C[C@]12CC[C@H](O)C[C@H]1CC[C@@H]1[C@@H]2CC[C@]2(C)[C@@H](c3ccc(=O)oc3)CC[C@]12O`, for which the inhibition in the assay filed under Sus scrofa [1] and in the assay filed under Sus scrofa [2] was 100% throughout.
